Test results as given in US20080108645A1, “Dihydrotetrabenazines And Pharmaceutical Compositions Containing Them” (CAMBRIDGE LABORATORIES, (IRELAND), LTD., priority 2004, published 2008).
Entries after “also recorded” stand apart in the source; their conditions may differ.

Columns and labels:
[1] = system: Male Sprague-Dawley rats; assay: Spontaneous locomotor activity in rats (sedative properties); assay type: in vivo, rat
Protocol: A study was carried out in rats to determine whether the dihydrotetrabenazine isomers of the invention have sedative properties. The effects of the isomers on spontaneous locomotor activity in rats were compared with the effects produced by tetrabenazine and haloperidol using the methods set out below.
Male Sprague-Dawley rats, (Charles River Laboratories, Saint-Germain/L'Arbresle, France), weighing 200-250 g at the beginning of the study, were used for the studies. The rats were housed, 2 or 3 per cage, in Makrolon type III cages, in a room set up with the following environmental conditions: temperature: 20±2° C., humidity: minimum 45%, air changes: >12 per hour, light/dark cycle of 12 h/12 h [on at 7:00 a.m.]. The rats were allowed to acclimatize to their conditions for at least five days before commencement of the study. The rats received food (Dietex, Vigny, France, ref. 811002) and water (tap water in water bottle) ad libitum.
Solutions of each test compound in corn oil were freshly prepared on the day of the experiment. Haloperidol was prepared in hydroxyethylcellulose, 0.5% in deionized water. Either the vehicle or the test compounds were administered as a single dose (0.3, 1, 3 and 10 mg/kg, 2 mL/kg i.p.). The reference compound haloperidol (1 mg/kg) was administered i.p. (2 mL/kg).
The animals were placed in plexiglass cages under a video camera in a room with low light intensity (maximum 50 lux). At forty five minutes and 3 hours after administration, locomotor activity was determined during 20 minute periods using a video image analyzer (Videotrack, View Point, France). Locomotor activity was recorded in the reference group (haloperidol) at 1 hour after administration. The number and duration of ambulatory movements and duration of inactivity was measured. At the end of the locomotor activity measurement (45 minutes and 3 hours), palpebral closure and arousal were be scored as follows in the plexiglass cage:
The number of occurrences and duration (in seconds) of ambulatory (large) movements and the duration of periods of inactivity (seconds) was determined during two 20 minute periods (45 minutes and 3 hours after administration) using a video image analyzer (Videotrack, ViewPoint, Lyon, France). Image tracking was performed using a video camera placed above the plexiglass cage, recording overall locomotor activity. Images recorded with the video camera were digitalized and displacement of the centre of gravity of the digital image spots was tracked and analyzed using the following method: the speed of displacement of the centre of gravity of the spot was measured and two threshold values were set to define the type of movement: threshold 1 (high speed) and threshold 2 (low speed). When the animal moved and the speed of displacement of the centre of gravity of the spot was above threshold 1, the movement was considered as an ambulatory movement.
The results were expressed as the means±SEMs of the 12 individual values. Statistical analyses were carried out using ANOVA (one way) and Dunnett's t-test and with the non parametric test of Kruskal-Wallis followed by a Mann & Whitney U-test for the sedation cotation. A p value of p<0.05 was taken as indicating significance.

[2] = molecular target: VMAT2 (Homo sapiens, UniProt Q05940); conditions: Erickson et al. (1996); cited from earlier work
Sequence of VMAT2 (Q05940 whole entry): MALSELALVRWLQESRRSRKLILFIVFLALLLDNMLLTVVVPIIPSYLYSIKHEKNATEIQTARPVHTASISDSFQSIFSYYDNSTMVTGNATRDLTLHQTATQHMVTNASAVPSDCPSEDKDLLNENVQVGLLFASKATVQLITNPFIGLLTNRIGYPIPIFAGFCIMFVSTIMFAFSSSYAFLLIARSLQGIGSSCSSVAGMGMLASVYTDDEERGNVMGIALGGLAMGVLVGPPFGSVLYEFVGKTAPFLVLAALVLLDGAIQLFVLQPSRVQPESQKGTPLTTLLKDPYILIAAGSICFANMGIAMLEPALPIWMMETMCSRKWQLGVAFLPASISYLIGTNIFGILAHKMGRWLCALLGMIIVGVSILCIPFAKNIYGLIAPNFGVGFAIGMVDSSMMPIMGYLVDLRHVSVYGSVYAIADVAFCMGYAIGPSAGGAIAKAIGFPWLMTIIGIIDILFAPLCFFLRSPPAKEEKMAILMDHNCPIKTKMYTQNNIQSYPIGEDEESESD

[3] = molecular target: T1, Adrenergic α2B Receptor (Homo sapiens, UniProt P18089); assay: Adrenergic α2B receptor radioligand binding; conditions: 10 μM; 2.5 nM [3H] Rauwolscine
T1 construct: expressed in transfected cells; host or cells: CHO-K1 cells
T1 sequence (P18089 1-450): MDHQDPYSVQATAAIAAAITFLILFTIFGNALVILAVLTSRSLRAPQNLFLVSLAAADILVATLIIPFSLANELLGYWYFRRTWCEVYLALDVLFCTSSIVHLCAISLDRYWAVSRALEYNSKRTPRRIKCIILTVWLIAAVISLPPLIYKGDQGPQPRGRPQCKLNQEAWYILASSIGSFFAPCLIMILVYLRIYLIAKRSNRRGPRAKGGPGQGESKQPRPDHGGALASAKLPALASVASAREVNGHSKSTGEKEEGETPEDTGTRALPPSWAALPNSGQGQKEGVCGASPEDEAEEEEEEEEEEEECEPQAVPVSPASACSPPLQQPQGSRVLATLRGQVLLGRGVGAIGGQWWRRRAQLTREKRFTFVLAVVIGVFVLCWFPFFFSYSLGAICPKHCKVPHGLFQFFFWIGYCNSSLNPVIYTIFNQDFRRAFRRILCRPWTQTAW
Protocol: (§1) (a) Adrenergic α2A Receptor: • Reference: S. Uhlen et al. J. Pharmacol. Exp. Ther., 271:1558-1565 (1994) • Source: Human recombinant insect Sf9 cells • Ligand: 1 nM [^3H] […] J. Pharmacol., 99:803-809, (1990) • Source: Wistar rat cerebral cortex • Ligand: 2 nM [3H]

[4] = molecular target: T2, Dopamine D2L Receptor (Homo sapiens, UniProt P14416); assay: Dopamine D2L receptor radioligand binding; conditions: 10 μM; 0.16 nM [3H] Spiperone
T2 construct: expressed in transfected cells; host or cells: CHO cells
T2 sequence (P14416 whole entry): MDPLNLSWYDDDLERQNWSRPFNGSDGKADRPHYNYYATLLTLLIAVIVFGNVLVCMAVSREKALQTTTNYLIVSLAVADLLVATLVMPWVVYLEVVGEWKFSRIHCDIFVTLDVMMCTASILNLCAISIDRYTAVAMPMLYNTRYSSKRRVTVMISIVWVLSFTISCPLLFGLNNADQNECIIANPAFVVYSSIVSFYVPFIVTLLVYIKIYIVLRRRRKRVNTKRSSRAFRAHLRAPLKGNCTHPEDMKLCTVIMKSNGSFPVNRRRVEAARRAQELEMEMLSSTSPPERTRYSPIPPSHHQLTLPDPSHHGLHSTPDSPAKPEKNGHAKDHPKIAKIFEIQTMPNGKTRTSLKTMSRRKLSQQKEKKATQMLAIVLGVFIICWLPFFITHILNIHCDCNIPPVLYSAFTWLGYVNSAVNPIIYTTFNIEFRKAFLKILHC
Protocol: as §1

[5] = system: Imidazoline I2 (Central) Receptor; assay: Imidazoline I2 (central) receptor radioligand binding; set-up: species or system Wistar rat; conditions: 10 μM; 2 nM [3H] Idazoxan
Protocol: as §1

[6] = molecular target: T3, Dopamine Transporter (DAT) (Homo sapiens, UniProt Q01959); assay: Dopamine transporter (DAT) radioligand binding; conditions: 10 μM, 0.15 nM [125I] RTI-55
T3 construct: expressed in transfected cells; host or cells: CHO cells
T3 sequence (Q01959 whole entry): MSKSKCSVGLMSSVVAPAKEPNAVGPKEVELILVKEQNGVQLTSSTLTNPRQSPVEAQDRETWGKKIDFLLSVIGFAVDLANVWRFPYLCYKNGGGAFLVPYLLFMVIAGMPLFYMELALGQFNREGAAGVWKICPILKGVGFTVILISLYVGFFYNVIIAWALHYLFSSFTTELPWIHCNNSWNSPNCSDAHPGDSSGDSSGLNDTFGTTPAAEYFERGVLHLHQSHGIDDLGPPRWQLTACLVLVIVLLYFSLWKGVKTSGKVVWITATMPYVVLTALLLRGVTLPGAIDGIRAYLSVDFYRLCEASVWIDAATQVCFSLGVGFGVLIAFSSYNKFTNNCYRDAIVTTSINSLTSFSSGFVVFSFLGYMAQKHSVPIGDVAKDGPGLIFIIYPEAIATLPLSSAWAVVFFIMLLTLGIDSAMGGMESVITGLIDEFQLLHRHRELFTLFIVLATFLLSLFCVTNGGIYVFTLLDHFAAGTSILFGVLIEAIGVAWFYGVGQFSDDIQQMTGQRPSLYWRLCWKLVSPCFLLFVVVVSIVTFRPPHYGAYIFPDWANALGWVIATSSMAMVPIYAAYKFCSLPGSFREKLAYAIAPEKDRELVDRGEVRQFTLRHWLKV
Protocol: as §1

[7] = molecular target: T4, Dopamine D1 Receptor (Homo sapiens, UniProt P21728); assay: Dopamine D1 receptor radioligand binding; conditions: 10 μM; 1.4 nM [3H] SCH-23390
T4 construct: expressed in transfected cells; host or cells: CHO cells
T4 sequence (P21728 whole entry): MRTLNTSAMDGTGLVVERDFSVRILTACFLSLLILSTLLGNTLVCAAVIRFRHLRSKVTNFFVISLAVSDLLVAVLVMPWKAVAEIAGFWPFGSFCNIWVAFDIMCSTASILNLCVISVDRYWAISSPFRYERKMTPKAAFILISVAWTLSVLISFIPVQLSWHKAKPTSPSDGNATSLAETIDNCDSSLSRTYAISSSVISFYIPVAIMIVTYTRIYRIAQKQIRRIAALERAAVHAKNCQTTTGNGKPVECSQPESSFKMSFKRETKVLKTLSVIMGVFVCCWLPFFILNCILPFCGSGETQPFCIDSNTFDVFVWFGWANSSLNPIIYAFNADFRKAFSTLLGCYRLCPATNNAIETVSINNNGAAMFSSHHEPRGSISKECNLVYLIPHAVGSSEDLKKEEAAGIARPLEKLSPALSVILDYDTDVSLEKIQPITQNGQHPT
Protocol: as §1

[8] = molecular target: T5, Sigma σ1 Receptor (Homo sapiens, UniProt Q99720); assay: Sigma σ1 receptor radioligand binding; conditions: 10 μM; 8 nM [3H] Haloperidol
T5 construct: Source: Human jurkat cells; endogenous in cells; host or cells: Jurkat cells
T5 sequence (Q99720 whole entry): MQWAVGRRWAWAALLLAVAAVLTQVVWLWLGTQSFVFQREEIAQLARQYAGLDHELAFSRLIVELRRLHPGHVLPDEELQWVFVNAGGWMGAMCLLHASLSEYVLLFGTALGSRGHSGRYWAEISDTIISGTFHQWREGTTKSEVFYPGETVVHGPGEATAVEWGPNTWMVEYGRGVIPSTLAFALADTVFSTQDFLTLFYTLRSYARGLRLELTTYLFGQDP
Protocol: as §1

[9] = molecular target: T6, Adrenergic α2A Receptor (Homo sapiens, UniProt P08913); assay: Adrenergic α2A receptor radioligand binding; conditions: 10 μM; 1 nM [3H] MK-912
T6 construct: expressed in transfected cells; host or cells: insect Sf9 cells
T6 sequence (P08913 1-465): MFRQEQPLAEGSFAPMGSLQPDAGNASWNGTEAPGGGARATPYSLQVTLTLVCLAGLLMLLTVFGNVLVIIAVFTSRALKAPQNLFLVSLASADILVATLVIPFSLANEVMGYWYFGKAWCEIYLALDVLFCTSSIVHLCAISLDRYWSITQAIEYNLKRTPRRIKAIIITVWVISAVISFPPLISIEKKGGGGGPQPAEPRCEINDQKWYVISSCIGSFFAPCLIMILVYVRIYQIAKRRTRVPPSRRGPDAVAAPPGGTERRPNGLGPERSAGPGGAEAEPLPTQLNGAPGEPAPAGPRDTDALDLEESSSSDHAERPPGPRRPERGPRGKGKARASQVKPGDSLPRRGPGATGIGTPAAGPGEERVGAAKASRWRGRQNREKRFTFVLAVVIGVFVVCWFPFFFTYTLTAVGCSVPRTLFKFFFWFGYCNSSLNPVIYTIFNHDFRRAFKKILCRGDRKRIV
Protocol: as §1

[10] = molecular target: T7, Serotonin Transporter (SERT) (Homo sapiens, UniProt P31645); assay: Serotonin transporter (SERT) radioligand binding; conditions: 10 μM; 0.15 nM [125I] RTI-55
T7 construct: expressed in transfected cells; host or cells: HEK-293 cells
T7 sequence (P31645 whole entry): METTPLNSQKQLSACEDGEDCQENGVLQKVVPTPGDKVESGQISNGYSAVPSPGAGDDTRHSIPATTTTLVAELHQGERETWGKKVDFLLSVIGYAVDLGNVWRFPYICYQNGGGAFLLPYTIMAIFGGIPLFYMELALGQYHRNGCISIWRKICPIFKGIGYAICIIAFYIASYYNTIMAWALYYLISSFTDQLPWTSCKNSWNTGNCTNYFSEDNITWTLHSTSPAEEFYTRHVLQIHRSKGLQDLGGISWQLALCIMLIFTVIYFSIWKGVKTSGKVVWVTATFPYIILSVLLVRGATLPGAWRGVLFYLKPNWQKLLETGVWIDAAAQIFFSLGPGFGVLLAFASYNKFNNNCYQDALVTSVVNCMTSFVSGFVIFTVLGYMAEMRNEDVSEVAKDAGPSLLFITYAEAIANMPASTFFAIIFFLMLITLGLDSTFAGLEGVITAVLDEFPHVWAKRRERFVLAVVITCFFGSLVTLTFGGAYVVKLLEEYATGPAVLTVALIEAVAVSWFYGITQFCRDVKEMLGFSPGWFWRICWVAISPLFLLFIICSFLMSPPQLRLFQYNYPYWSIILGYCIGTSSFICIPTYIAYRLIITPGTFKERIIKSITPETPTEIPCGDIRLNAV
Protocol: as §1

[11] = system: Caco-2 monolayer; conditions: for Recovery: human, Caco-2, 1 h, 50 μM, pH 7.4
From the text: (§2) The assay relies on the ability of Caco-2 cells to differentiate into enterocytes when cultured on a microporous filter for a period of approximately 21 days. During the culture period, the Caco-2 cells undergo spontaneous morphological and biochemical changes, which produce a polarized monolayer with a well-defined brush border on the apical surface, as well as tight cellular junctions. Therefore, these cells may be used as an in vitro model for the analysis of drug permeability.
(§3) Absorption across the Caco-2 monolayer can be measured in two directions: apical-to-basolateral or basolateral-to-apical, by adding the compound to the apical or the basolateral chamber, respectively. At various time-points, samples are collected from the receiver-chamber for analysis for the rate of absorption as measured by the apparent permeability coefficient (Papp) across the monolayer.
(§4) The Papp value reflects a combination of the test article permeability through both transcellular (through cell membranes) and the paracellular (across the tight junctions between the cells) pathways. The relative contribution of these pathways depends upon the pKa, partition coefficient (log D), molecular radius, and charge of the test article at a given pH. Papp values can then be used to rank-order compounds for their permeability through Caco-2 monolayers.
(§5) Absorption was determined at pH 7.4 across cell monolayers in the apical-to-basolateral direction. Caco-2 cells used to estimate Papp values were grown for 26 days on Transwell inserts in 12-well plates. Monolayer integrity was verified before and after the absorption assay by the methods of transepithelial electrical resistance (Ohm-cm^2) and Lucifer Yellow.
(§6) On the day of the assay, the reference standards were diluted in Hank's balanced salt solution (HBSS), pH 7.4 to a final concentration of 50 μM. […] Dihydrotetrabenazine isomer samples were prepared at a concentration of 50 mM in DMSO. Each stock solution was further diluted in HBSS buffer (pH 7.4) to a final working concentration of 50 μM
(§7) The Caco-2 cell suspensions were prepared as follows. […] Once the cell density and viability were determined, Caco-2 cells were diluted in culture medium to a final working concentration of 2.0×10^5 cells/ml. The Caco-2 culture medium contained Dulbecco's Modified Eagle Medium, 10% fetal bovine serum, 100 μM non-essential amino acids, 100 U/ml penicillin and 100 μg/ml streptomycin.
(§8) Costar polycarbonate membranes (0.4 μm pore size) were pre-equilibrated with Caco-2 culture medium for 1 hour in a 37° C. water-jacketed incubator with 5% CO2. The content of the apical chamber was removed and replaced with 500 μl of Caco-2 cell suspension (200 000 cells/ml). Cells were further maintained in culture for 26 days in a 37° C. water-jacketed incubator with 5% CO2.
(§9) Prior to the assay, all monolayers were washed twice with HBSS and their transepithelial electrical resistance (TEER) was measured with a Millicell-ERS meter. TEER values obtained in the absence of cells were subtracted as background signal. Only monolayer with TEER values over 150 Ohm-cm^2 were used for the absorption assay experiment.
(§10) All absorption experiments were conducted in triplicate at pH 7.4. The rate of absorption of each reference standard and dihydrotetrabenazine test article was assessed in the apical-to-basolateral direction. Aliquots (100 μl) of each working solution (reference standards and test articles at 50 μM) were set aside at the beginning of the assay for the determination of the initial concentration (Co).
(§11) Absorption experiments were initiated by replacing the content of the donor chamber with 500 μl of Hanks Balanced Salt Solution containing test articles or reference compounds. Cells were returned to the CO2 incubator for the absorption assay. Samples of 100 μl were collected from the receiver and donor chambers after 1 hour and were used to determine the percentage of recovery.

[12] = molecular target: T8, Sigma σ2 Receptor (Rattus norvegicus, UniProt Q5U3Y7); assay: Sigma σ2 receptor radioligand binding; set-up: species or system Wistar rat; conditions: 3 nM [3H] Ifenprodil
T8 construct: Source: Wistar rat brain; from tissue; host or cells: Wistar rat brain
T8 sequence (Q5U3Y7 1-176): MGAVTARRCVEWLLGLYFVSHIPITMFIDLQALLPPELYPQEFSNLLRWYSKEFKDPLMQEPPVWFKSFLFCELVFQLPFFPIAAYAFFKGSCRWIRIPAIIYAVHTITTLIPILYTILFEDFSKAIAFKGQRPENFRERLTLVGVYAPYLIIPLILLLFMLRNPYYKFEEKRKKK
Protocol: as §1

[13] = molecular target: T9, Dopamine D3 Receptor (Homo sapiens, UniProt P35462); assay: Dopamine D3 receptor radioligand binding; conditions: 10 μM; 0.7 nM [3H] Spiperone
T9 construct: expressed in transfected cells; host or cells: CHO cells
T9 sequence (P35462 whole entry): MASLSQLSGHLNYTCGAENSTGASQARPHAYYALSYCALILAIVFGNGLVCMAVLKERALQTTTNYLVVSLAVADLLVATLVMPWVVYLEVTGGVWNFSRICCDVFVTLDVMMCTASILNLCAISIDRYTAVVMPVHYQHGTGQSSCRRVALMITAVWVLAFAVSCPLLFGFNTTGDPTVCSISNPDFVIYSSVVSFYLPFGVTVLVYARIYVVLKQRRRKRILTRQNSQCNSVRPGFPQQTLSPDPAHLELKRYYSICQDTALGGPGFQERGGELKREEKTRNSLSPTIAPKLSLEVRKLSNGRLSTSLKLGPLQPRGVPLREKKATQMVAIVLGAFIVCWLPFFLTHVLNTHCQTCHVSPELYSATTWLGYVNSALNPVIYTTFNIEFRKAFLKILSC
Protocol: as §1

[14] = in vitro; conditions: human, Caco-2, pH 7.4
From the text: as §2, §3, §4, §5, §6, §7, §8, §9, §10, §11

[15] = 0.3 mg/kg i.p., 45 minutes after administration
[16] = 0.3 mg/kg i.p., 3 hours after administration
[17] = 1 mg/kg i.p., 45 minutes after administration
[18] = 1 mg/kg i.p., 3 hours after administration
[19] = 3 mg/kg i.p., 45 minutes after administration
[20] = 3 mg/kg i.p., 3 hours after administration
[21] = 10 mg/kg i.p., 45 minutes after administration
[22] = 10 mg/kg i.p., 3 hours after administration

For COc1cc2c(cc1OC)C1CC(=O)C(CC(C)C)CN1CC2 (racemic) [Tetrabenazine, 1,3,4,6,7,11b-hexahydro-9,10-dimethoxy-3-(2-methylpropyl)-2H-benzo(a)quinolizin-2-one], the “Inactivity Duration” value [1, 15] was 390.4 ± 37.4 s, the “Large movements Duration” value [1, 15] was 66.8 ± 10.7 s and the “Large movements Occurrence” value [1, 15] was 253 ± 32. For the same compound, the “Inactivity Duration” value [1, 16] was 545.9 ± 37.1 s, the “Large movements Duration” value [1, 16] was 24.3 ± 4.2 s and the “Large movements Occurrence” value [1, 16] was 96 ± 14. The “Inactivity Duration” value [1, 17] was 456.5 ± 50.5 s, the “Large movements Duration” value [1, 17] was 46.5 ± 8.6 s and the “Large movements Occurrence” value [1, 17] was 189 ± 32. For the same compound, the “Inactivity Duration” value [1, 18] was 556.9 ± 31.1 s, the “Large movements Duration” value [1, 18] was 21.5 ± 4.0 s and the “Large movements Occurrence” value [1, 18] was 90 ± 16. For the same compound, the “Inactivity Duration” value [1, 19] was 697.8 ± 39.7 s, the “Large movements Duration” value [1, 19] was 8.7 ± 5.9 s and the “Large movements Occurrence” value [1, 19] was 38 ± 25. For the same compound, the “Inactivity Duration” value [1, 20] was 729.9 ± 26.8 s, the “Large movements Duration” value [1, 20] was 1.7 ± 0.9 s and the “Large movements Occurrence” value [1, 20] was 9 ± 4. The “Inactivity Duration” value [1, 21] was 723.1 ± 46.5 s, the “Large movements Duration” value [1, 21] was 0.2 ± 0.2 s and the “Large movements Occurrence” value [1, 21] was 1 ± 1. For the same compound, the “Inactivity Duration” value [1, 22] was 762.1 ± 40.7 s, the “Large movements Duration” value [1, 22] was 0.6 ± 0.3 s and the “Large movements Occurrence” value [1, 22] was 3 ± 1. For the same compound, the “sedative effect (in words)” value ([1]; 0.3-10 mg/kg i.p., 45 minutes and 3 hours after administration) was “dose-dependent sedative effect; also recorded: dose related sedative effect” and the “affinity for VMAT2 in comparison to VMAT1” value [2] was ≥ 200 fold.
For COc1cc2c(cc1OC)[C@H]1C[C@H](O)[C@@H](CC(C)C)CN1CC2 (single isomer, unassigned) [Isomer A, 3,11b-cis-dihydrotetrabenazine], the “Percentage Inhibition of Specific Binding, α2B Receptor” value [3] was 44%, the “Percentage Inhibition of Specific Binding, D2L Receptor” value [4] was 87% and the “Percentage Inhibition of Specific Binding, I2 Receptor” value [5] was 74%. The inhibition at 10 µM ([6]; read-out: Percentage Inhibition of Specific Binding, DAT) was 3%, the “Percentage Inhibition of Specific Binding, D1 Receptor” value [7] was 78% and the “Percentage Inhibition of Specific Binding, σ1 Receptor” value [8] was 48%. For the same compound, the “Percentage Inhibition of Specific Binding, α2A Receptor” value [9] was 86%, the “Percentage Inhibition of Specific Binding, SERT” value [10] was 19% and the “permeability in the Caco-2 model (in words)” value [11] was “high permeability”. The Recovery [11] was 106.8 ± 7.9%, the inhibition at 10 µM ([12]; read-out: Percentage Inhibition of Specific Binding, σ2 Receptor) was 64% and the “Percentage Inhibition of Specific Binding, D3 Receptor” value [13] was 69%.
For COc1cc2c(cc1OC)[C@H]1C[C@@H](O)[C@@H](CC(C)C)CN1CC2 (single isomer, unassigned) [Isomer D, 3,11b-cis-dihydrotetrabenazine], the “Percentage Inhibition of Specific Binding, α2B Receptor” value [3] was 50%, the “Percentage Inhibition of Specific Binding, D2L Receptor” value [4] was 58% and the “Percentage Inhibition of Specific Binding, I2 Receptor” value [5] was 55%. For the same compound, the “Percentage Inhibition of Specific Binding, DAT” value [6] was 2%, the “Percentage Inhibition of Specific Binding, D1 Receptor” value [7] was 38% and the “Percentage Inhibition of Specific Binding, σ1 Receptor” value [8] was 82%. The “Percentage Inhibition of Specific Binding, α2A Receptor” value [9] was 87%, the “Percentage Inhibition of Specific Binding, SERT” value [10] was 8% and the “permeability in the Caco-2 model (in words)” value [11] was “high permeability”. For the same compound, the Recovery [11] was 106.5 ± 23.8%, the “Percentage Inhibition of Specific Binding, σ2 Receptor” value ([12]; 10 μM) was 69% and the “Percentage Inhibition of Specific Binding, D3 Receptor” value [13] was 63%.
With O=C(CCCN1CCC(O)(c2ccc(Cl)cc2)CC1)c1ccc(F)cc1 [Haloperidol, reference compound] the “Inactivity Duration” value [1, 17] was 637.2 ± 60.1 s, the “Large movements Duration” value [1, 17] was 14.8 ± 8.5 s and the “Large movements Occurrence” value [1, 17] was 58 ± 33. For the same compound, the “Inactivity Duration” value [1, 18] was 723.6 ± 50.2 s, the “Large movements Duration” value [1, 18] was 2.2 ± 2.0 s and the “Large movements Occurrence” value [1, 18] was 9 ± 8.
For OC[C@@H](O)[C@@H](O)[C@H](O)[C@H](O)CO [Mannitol], the Papp A→B at 1 h, 50 μM [14] was 1.18 ± 0.14 ×10⁻⁶ cm/s and the recovery at 1 h, 50 μM [14] was 97.1 ± 0.3%.
Compound O=C(O)c1ccccc1O [Salicylic Acid] has a Papp A→B at 1 h, 50 μM [14] of 8.91 ± 8.14 ×10⁻⁶ cm/s and a recovery at 1 h, 50 μM [14] of 91.5 ± 11.4%.
Work on C[C@]12CC[C@H]3[C@@H](CCC4=CC(=O)CC[C@@]43C)[C@@H]1CC[C@@H]2O [Testosterone] yielded a recovery at 1 h, 50 μM [14] of 105 ± 10.6%.
